Data taken from patent publication US10226509B2, “Lymphangiogenesis inhibitors for cancer and for graft survival” (TUFTS UNIVERSITY, priority 2014, dated 2019).
Read-outs that look alike come from different tables or passages of the source.

Tests used:
PDPN = biological target: T1, PDPN (Homo sapiens, UniProt Q86YL7); assay: Affinity precipitation assay, PDPN; format: binding; settings: for inhibition of binding of PDPN to Gal-8: 0.1 M sugar; for binding of PDPN (in words): galectin-conjugated agarose beads, LEC lysates
T1 construct: Within the whole cell lysate, an anti-PDPN-reactive 43-kDa component was detected; host or cells: primary lymphatic endothelial cells (LECs)
T1 sequence (Q86YL7 23-162): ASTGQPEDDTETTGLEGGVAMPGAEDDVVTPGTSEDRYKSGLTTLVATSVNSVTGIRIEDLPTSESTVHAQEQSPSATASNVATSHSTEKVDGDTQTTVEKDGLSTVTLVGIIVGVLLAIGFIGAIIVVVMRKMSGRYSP
Experimental: (§1) Five mg of plant lectins (Vector Labs) and galectins were conjugated to 330 mg of Pierce® NHS-activated agarose dry resin in accordance with the manufacturer's instructions (Thermo Scientific). Primary LECs (Lonza) were lysed in Triton lysis buffer (20 mM Tris-HCl, pH 7.4; 150 mM NaCl; 0.5% Triton X-100 with protease inhibitor cocktail). LEC lysates (250 μg in 500 μL lysis buffer supplemented with 10 mM MgCl2) were incubated with 40 μL (50% slurry) of agarose-conjugated lectins (4° C., overnight). Beads were pelleted by centrifugation at 3000 rpm for 1 min. Non-specific binding proteins were removed by washing the beads with Triton lysis buffer once and PBS twice. Supernatants were discarded; bound proteins were eluted by boiling the beads with 20 μL of 2× Laemmli sample buffer for 7 min, and examined by western blotting.
To determine whether PDPN binds to Gal-8 in a carbohydrate-dependent manner, LEC lysates were incubated with Gal-8-conjugated to agarose beads in the presence or absence of 0.1 M of lactose (an inhibiting sugar) or sucrose (a non-inhibiting sugar). Bound proteins were examined with total cell lysates (input) by western blot using an anti-PDPN antibody. To determine specificity of PDPN binding to Gal-8, LEC lysates were also incubated with agarose beads conjugated to Gal-1, Gal-3 and Gal-7. Within the whole cell lysate, an anti-PDPN-reactive 43-kDa component was detected (FIG. 7A).

VEGFR-3 = assay: Affinity precipitation assay, VEGFR-3; format: binding, human; settings: 0.1 M sugar
Experimental: as §1
Next, a series of examples were performed to determine whether VEGF-C-induced lymphangiogenesis is dependent on Gal-8. To determine whether VEGFR-3 is a Gal-8-binding protein, LEC lysates were incubated with Gal-8-conjugated agarose beads in the presence or absence of 0.1 M of lactose (an inhibiting sugar) or sucrose (a non-inhibiting sugar). Bound proteins were examined and were compared to total cell lysates (input) by western blot using anti-VEGFR-3 antibody. Three forms of VEGFR-3 (125 kDa, 175 kDa and 195 kDa) were detected in total cell lysates (FIG. 5A) (Bando, H., et al. 2004. Int J Cancer 111:184-191.). […] Having shown that Gal-8 binds to VEGFR-3 in LECs and that the carbohydrate-binding activity of Gal-8 is required for the synergistic effect of Gal-8 on VEGF-C-induced LEC sprouting, it was of interest to determine whether VEGFR-3 bears 3′-sialylated glycans.

[1] = tested on: VEGF-C-induced LEC sprouting; assay: LEC sprouting assay: VEGF-C-induced sprouting; format: cell-based, human; settings: VEGF-C 50 ng/ml, 24 h
Experimental: (§2) LEC spheroids were generated by seeding primary LECs at passage 4 or 5 in each well of 384-well hanging-drop plates (3D Biomatrix) in complete EGM-2 MV medium containing 0.25% methyl cellulose according to the manufacturer's instructions (750 cells/well). After 18 hours, LEC spheroids were collected, resuspended in serum-free EBM-2 basal medium, and mixed with collagen solution (PureCol collagen, Advanced BioMatrix, 2.2 mg/ml in M199 medium, pH adjusted to 7.4 with NaHCO3 and NaOH). Aliquots of the LEC spheroid/collagen mixture (250 μl/well of 48-well plate) were incubated in the presence or absence of various test agents for 24 hr. At the end of the incubation period, spheroids were stained with Calcein AM (Invitrogen, 1 μg/mL, 37° C., and 30 min). Fluorescent images were acquired using the EVOS FL cell imaging system, pixels were inverted for better visualization and cumulative length of each sprout was calculated. Results were expressed as fold change compared to corresponding controls. It was observed that sprout lengths vary from passages to passages. Test agents used included thiodigalactoside (10 to 50 mM, Carbosynth), 3′-sialyl lactose (2 to 10 mM, Carbosynth), 6′-sialyl lactose (2 to 10 mM, Carbosynth), LY294002 (20 μM, Abeam), U0126 (20 μM, Abeam), PD0325901 (1 μM, Selleckchem), human VEGFR-3-Fc chimera (10 μg/ml, R&D), human VEGFR-2-Fc chimera (10 μg/ml, R&D), Avastin (10 μg/ml, bevacizumab, Genentech/Roche), human control IgG (10 μg/ml, Southern Biotech), anti-human podoplanin functional grade antibody (10 μg/ml, eBioscience), and rat IgG2a κ isotype control functional grade antibody (10 μg/ml, eBioscience).
In this assay, the LEC spheroids were treated with VEGF-C (50 ng/ml) in the presence or absence of 0.75 μM of Gal-8 for 24 hours, and then accumulated sprout lengths were quantified. […] Synergistic effect of Gal-8 on VEGF-C-induced LEC sprouting was dose-dependent. […] At concentrations >0.5 μM Gal-8, there was no further increase in the degree of VEGF-C-induced lymphangiogenesis (FIG. 4C).
To further characterize the role of carbohydrate-mediated recognition in VEGF-C-induced lymphangiogenesis, LEC spheroids were stimulated with VEGF-C (50 ng/ml) in the presence or absence of three different galectin inhibitors. […] Therefore, the data establishes the critical role of Gal-8-mediated carbohydrate-mediated recognition in VEGF-C-induced lymphangiogenesis.

LEC spheroids = assay: LEC sprouting assay: stimulation by galectins alone; format: cell-based, human; settings: 24 hours
Experimental: as §2
To assess the effect of galectins on LEC sprouting, LEC spheroids were embedded in a collagen matrix and incubated with media containing various test agents. After 24 hours, the cumulative length of the sprouts for each spheroid was quantified by ImageJ. […] Multiple approaches were used to determine whether the stimulatory effect of Gal-8 on LEC sprouting was carbohydrate-dependent.

[2] = tested on: Gal-8-induced LEC sprouting; assay: LEC sprouting assay: Gal-8-induced sprouting with inhibitors or knockdown; format: cell-based, human
Experimental: as §2, with “It was observed that sprout lengths vary from passages to passages.” left out
To determine the role of these pathways on Gal-8-induced lymphangiogenesis, LEC spheroids were stimulated with Gal-8 (0.75 μM) in the presence or absence of PI3K inhibitor (LY294002, 20 μM) and two different MEK inhibitors (U0126, 20 μM; PD0325901, 1 μM). After overnight treatment with Gal-8, accumulated sprout lengths were quantified.

[3] = Gal-8 0.75 μM, 24 h, TDG 20 mM, LY294002 20 μM, U0126 20 μM, PD0325901 1 μM, Avastin 10 μg/ml, Obtustatin 4 μM, antibodies 20 μg/ml, siRNA-transfected LECs

OC[C@H]1O[C@@](CO)(O[C@H]2O[C@H](CO)[C@@H](O)[C@H](O)[C@H]2O)[C@@H](O)[C@@H]1O [sucrose, reference compound]
inhibition of binding of PDPN to Gal-8 (PDPN): not by sucrose | inhibition of binding of VEGFR-3 to Gal-8 (VEGFR-3): not sucrose, a noncompeting sugar

Gal-3: recombinant galectin-3
binding of PDPN (in words) (PDPN): does not bind | effect on VEGF-C-induced LEC sprouting (in words) [1]: did not potentiate | promotion of LEC sprouting by the agent alone (in words) (LEC spheroids): not Gal-1, Gal-3 or Gal-7, promotes LEC sprouting

CC(=O)N[C@H]1[C@H]([C@H](O)[C@H](O)CO)O[C@@](OC[C@H]2O[C@@H](O[C@H]3[C@H](O)[C@@H](O)[C@H](O)O[C@@H]3CO)[C@H](O)[C@@H](O)[C@H]2O)(C(=O)O)C[C@@H]1O [6′-SL, 6′-sialyl lactose]
effect on Gal-8-induced LEC sprouting (in words) [2, 3]: had no effect

Gal-1: recombinant galectin-1
binding of PDPN (in words) (PDPN): does not bind | effect on VEGF-C-induced LEC sprouting (in words) [1]: did not potentiate | promotion of LEC sprouting by the agent alone (in words) (LEC spheroids): not Gal-1, Gal-3 or Gal-7, promotes LEC sprouting

Obtustatin: a blocking peptide against integrin α1β1 (CTTGPCCRQCKLKPAGTTCWKTSLTSHYCTGKSCDCPLYPG) [reference compound]
effect on VEGF-C-induced LEC sprouting (in words) [1]: inhibited | effect on Gal-8-induced LEC sprouting (in words) [2, 3]: inhibited

O=C(NOC[C@H](O)CO)c1ccc(F)c(F)c1Nc1ccc(I)cc1F [PD0325901]
effect on Gal-8-induced LEC sprouting (in words) [2, 3]: markedly inhibited

Gal-7: recombinant galectin-7
binding of PDPN (in words) (PDPN): does not bind | effect on VEGF-C-induced LEC sprouting (in words) [1]: did not potentiate | promotion of LEC sprouting by the agent alone (in words) (LEC spheroids): not Gal-1, Gal-3 or Gal-7, promotes LEC sprouting

CC(=O)N[C@H]1[C@H]([C@H](O)[C@H](O)CO)O[C@@](O[C@H]2[C@@H](O)[C@@H](CO)O[C@@H](O[C@H]3[C@H](O)[C@@H](O)C(O)O[C@@H]3CO)[C@@H]2O)(C(=O)O)C[C@@H]1O (some centres unmarked) [3′-SL, 3′-sialyllactose]
effect on VEGF-C-induced LEC sprouting (in words) [1]: inhibited | inhibition of Gal-8-induced LEC sprouting ([2]; at 2 mM concentration): 95% | nH of inhibition of galectin-8-mediated LEC sprouting ([2]; galectin-8 at 0.75 μM): 3.38 | IC50 ([2]; galectin-8 at 0.75 μM, read-out: IC50 of the inhibitory effect on galectin-8-mediated LEC sprouting): 1250 µM | Ki ([2]; galectin-8 at 0.75 μM, read-out: Ki (Ki=IC50/(1+[A]/EC50))): 1670 µM

N#CC(=C(/N)Sc1ccccc1N)/C(C#N)=C(\N)Sc1ccccc1N [U0126]
effect on Gal-8-induced LEC sprouting (in words) [2]: markedly inhibited

OC[C@H]1O[C@@H](O[C@H]2[C@H](O)[C@@H](O)C(O)O[C@@H]2CO)[C@H](O)[C@@H](O)[C@H]1O (some centres unmarked) [lactose, reference compound]
inhibition of binding of PDPN to Gal-8 (PDPN): inhibited | inhibition of binding of VEGFR-3 to Gal-8 (VEGFR-3): inhibited

Gal-8Q47A: Gal-8 mutant which has lost its ability to bind to α2,3-sialylated glycans
promotion of LEC sprouting by the agent alone (in words) (LEC spheroids): not promote lymphangiogenesis

B1: VEGFR-3-Fc: human VEGFR-3-Fc chimera (protein)
chain: YSMTPPTLNITEESHVIDTGDSLSISCRGQHPLEWAWPGAQEAPATGDKDSEDTGVVRDCEGTDARPYCKVLLLHEVHANDTGSYVCYYKYIKARIEGTTAASSYVFVRDFEQPFINKPDTLLVNRKDAMWVPCLVSIPGLNVTLRSQSSVLWPDGQEVVWDDRRGMLVSTPLLHDALYLQCETTWGDQDFLSNPFLVHITGNELYDIQLLPRKSLELLVGEKLVLNCTVWAEFNSGVTFDWDYPGKQAERGKWVPERRSQQTHTELSSILTIHNVSQHDLGSYVCKANNGIQRFRESTEVIVHENPFISVEWLKGPILEATAGDELVKLPVKLAAYPPPEFQWYKDGKALSGRHSPHALVLKEVTEASTGTYTLALWNSAAGLRRNISLELVVNVPPQIHEKEASSPSIYSRHSRQALTCTAYGVPLPLSIQWHWRPWTPCKMFAQRSLRRRQQQDLMPQCRDWRAVTTQDAVNPIESLDTWTEFVEGKNKTVSKLVIQNANVSAMYKCVVSNKVGQDERLIYFYVTTIPDGFTIESKPSEELLEGQPVLLSCQADSYKYEHLRWYRLNLSTLHDAHGNPLLLDCKNVHLFATPLAASLEEVAPGARHATLSLSIPRVAPEHEGHYVCEVQDRRSHDKHCHKKYLSVQALEAPRLTQNLTDLLVNVSDSLEMQCLVAGAHAPSIVWYKDERLLEEKSGVDLADSNQKLSIQRVREEDAGRYLCSVCNAKGCVNSSASVAVEGSEDKGSMEI
modifications: left off: a dimerising Fc or GST
notes: human VEGFR-3-Fc chimera
effect on VEGF-C-induced LEC sprouting (in words) [1]: inhibited | % inhibition of Gal-8-induced LEC sprouting ([2]; Gal-8 0.75 μM, 10 μg/ml, 24 hours): 37%
